Where two headings read alike, the source gives them in different places.
Columns and labels:
in vivo [1] = conditions: for LD50 at 48 h: read-out: LD50 (48 hr); for selectivity ratio / LD50: mouse
acute toxicity, rat = conditions: in vivo, sc; Rat s.c.; preliminary result
Method: (§1) Compounds were administered in 2% clearjel as a suspension except in
(§2) Toxicities have only been run with male animals to date.

acute toxicity, cat = conditions: in vivo
Method: as §1, §2

[2] = phenylbenzoquinone writhing test, mouse; type: in vivo; conditions: mouse, in vivo
Method: (§7) In addition to the hot plate method, the writhing test described by Sigmund et al., Soc. Exp. Biol. and Med. 95:729 (1957) has been applied in both rats and mice as further indication of analgesics. […] The stimulus of intraperitoneal injection of phenylbenzoquinone results in a writhing syndrome characterized by periodic twisting and stretching of the body with extension of the hind legs. […] The dose of compound protecting 50% of the animals is determined and expressed as the ED50. Ten animals are used at each dose level.

[3] = tested on: phenylbenzoquinone writhing; test: phenylbenzoquinone writhing test, mouse; type: in vivo
Method: as §7

[4] = phenylbenzoquinone writhing test, rat; type: in vivo; conditions: rat, in vivo
Source text: (§3) […]. […] Ten animals are used at each dose level.

[5] = tested on: phenylbenzoquinone writhing; test: phenylbenzoquinone writhing test, rat; type: in vivo
Source text: as §3

heat stimulus [6] = test: D'Amour Smith Rat Tail Flick; type: in vivo; conditions: Rattus norvegicus
Source text: (§4) In the original method the time required for rats to flick their tails following application of a heat stimulus is taken as a measure of analgesic potency.

[7] = tested on: isolated guinea pig ileum (Acetylcholine); test: isolated guinea pig ileum screen, block of acetylcholine
[8] = tested on: isolated guinea pig ileum (Histamine); test: isolated guinea pig ileum screen, block of histamine (antihistaminic); conditions: for Amount to produce a 50% block of Histamine: isolated guinea pig ileum, 37° C.; for antihistaminic activity compared with diphenhydramine: words
Source text: Contractions were elicited by histamine phosphate. The concentration of compound required to block these contractions when added to the tissue bath prior to introduction of histamine is taken as evidence of antihistaminic action.

[9] = tested on: pinna reflex, corneal reflex; test: pinna / corneal reflex test (Witkin et al.), tranquilizer activity; type: in vivo, mouse; conditions: for ratio of ED50 corneal/ED50 pinna: mouse, exceeding unity = tranquilizer type action; for tranquilizer classification from corneal/pinna ratio: words
Source text: (§5) A tranquil sedation has been observed in mice, rats, cats and monkeys following administration of these compounds in doses exceeding those that are required for analgesia. In addition further indirect evidence for tranquilizer activity has been obtained by application of a method described by Witkin et al., J. Pharmacol, and Exp. Ther. 126:330 (1959)
This test is based upon observations that the pinna reflex of the mouse is blocked at relatively low doses of major tranquilizer drugs whereas very high doses are needed to block the corneal reflex. A ratio of ED50 corneal/ED50 pinna exceeding unity is taken as evidence of tranquilizer type action. […].

[10] = tested on: oxymorphone induced mydriasis; test: antagonism of oxymorphone induced mydriasis; type: in vivo, mice; conditions: words
Method: (§6) The compounds of this invention were tested for their ability to antagonize narcotic analgesics by two different tests. […] Another test used for narcotic antagonist activity was published by Harris & Pearson. This test is modification of the D'Amour & Smith method.

morphine analgesia = test: antagonism of morphine analgesia (Harris & Pearson, modified D'Amour & Smith); type: in vivo; conditions: rats; words
Method: as §6, §4

[11] = hypothermic effect, rectal temperature; type: in vivo; conditions: mice; words
Method: Rectal temperatures were recorded periodically in mice following administration of 740-222 by oral route.

[12] = tested on: metrazol induced convulsions; test: anticonvulsant activity, pentylenetetrazol (Metrazol) convulsions; type: in vivo; conditions: mice, words
intestinal motility = test: gastrointestinal motility suppression (Brittain & Collier, modified), charcoal; type: in vivo; conditions: mice, words
NARCOTIC ANTAGONISM = test: narcotic antagonism (Table IV); type: in vivo; conditions: I.P.
Method: as §6, §4

[13] = analgesic activity and general pharmacology, conventional testing methods; type: in vivo; conditions: words
Source text: Ten animals are used for each dose level.
Ten animals are used at each dose level.

in vivo [14] = conditions: mouse
in vivo [15] = conditions: ip
[16] = mouse hot plate test (Eddy and Leimbach, modified); conditions: mouse, in vivo, LD50 /ED50 H.P.
heat stimulus [17] = test: mouse hot plate test (Eddy and Leimbach, modified); conditions: for ED50: Mus musculus, read-out: Hot Plate ED50
in vivo [18] = test: in vivo; parameters: species or system mice, rats, cats and monkeys
Source text: as §5

solubility = type: physicochemical; conditions: words
[19] = ip, Cat i.p., preliminary result (740-222)
[20] = po, Mouse p.o., read-out: LD50 /ED50 Writhing

Work on `NC(=O)c1ccccc1NCCN1CCN(c2ccccc2)CC1` [Example 730-372A, 2-[2-(4-[1-Phenyl]piperazinyl)ethylamino]-benzamide] yielded an LD50 at 48 h (in vivo [1]; ip, Mouse i.p.) greater than 1000 mg/kg, an LD50 at 48 h (in vivo [1]; iv, Mouse i.v., solution (5mg/ml) in distilled water) of 50 mg/kg and an LD50 at 48 h (in vivo [1]; po, Mouse p.o.) greater than 1000 mg/kg. The LD50 at 48 h (in vivo [1]; sc, Mouse s.c.) was greater than 1000 mg/kg, the LD50 at 48 h (acute toxicity, rat) was greater than 1000 mg/kg and the LD50 at 48 h (acute toxicity, cat; [19]) was greater than 1000 mg/kg.
Work on `NC(=O)c1ccccc1NCCN1CCN(c2ccccc2)CC1` [Example I, 2-[2-(4-[1-Phenyl]piperazinyl)ethylamino]-benzamide] yielded a selectivity ratio ([2]; po) of 1.9, a selectivity ratio [2, 20] greater than 340 and a selectivity ratio ([2]; sc) of 6.3. The selectivity ratio ([2]; sc, Mouse s.c., read-out: LD50 /ED50 Writhing) was greater than 620, the ED50 ([3]; po, Mouse p.o.) was 2.9 mg/kg and the ED50 ([3]; sc, Mouse s.c.) was 1.6 mg/kg. The selectivity ratio [4] was 2, the selectivity ratio ([4]; Rat Sub. cut, read-out: LD50 /ED50 Writhing) was 400 and the ED50 ([5]; sc, Rat Sub. cut, read-out: Writhing ED50) was 2.5 mg/kg. For the same compound, the ED50 (heat stimulus [6]; sc, Sub. cut., read-out: Rat Tail Flick ED50) was greater than 18 mg/kg, the selectivity ratio (in vivo [1]) was greater than 300 and the LD50 (in vivo [1]; read-out: acute toxicity (LD50)) was 800 to 1000 mg/kg. For the same compound, the “Amount to produce a 50% block of Acetylcholine” value [7] was 126 micrograms, the “Amount to produce a 50% block of Histamine” value [8] was 0.8 micrograms and the “antihistaminic activity compared with diphenhydramine” value [8] was “about half as active as the standard”. The “ratio of ED50 corneal/ED50 pinna” value [9] was “approximately 0.5”, the “tranquilizer classification from corneal/pinna ratio” value [9] was “within the range of ratios expected with sedatives (0.3 to 0.7)” and the “antagonism of oxymorphone induced mydriasis” value [10] was “effective in antagonizing oxymorphone induced mydriasis”. The “antagonism of morphine analgesia” value (morphine analgesia) was “at lower dose levels antagonism of morphine analgesia was observed in rats”, the hypothermic effect [11] was “also effective in this respect” and the “antagonism of metrazol induced convulsions” value ([12]; subcutaneous) was “not effective by the subcutaneous route”. For the same compound, the “suppression of intestinal motility” value (intestinal motility) was “less important”, the “NARCOTIC ANTAGONISM” value (NARCOTIC ANTAGONISM) was “Positive” and the “analgesic activity compared with morphine, hot plate and writhing tests” value [13] was “approximately equivalent to or slightly more active than morphine”. For the same compound, the “oral versus parenteral analgesic activity” value [13] was “more active by the parenteral routes than by the oral route”, the selectivity ratio (in vivo [14]; ip) was 1.2 and the selectivity ratio (in vivo [14]; po) was 1.9. For the same compound, the selectivity ratio (in vivo [14]; sc) was 2.4, the LD50 (in vivo [15]) was 800 mg/kg and the NOAEL (in vivo [15]) was 2 mg/kg. It also gave a selectivity ratio ([16]; ip, Mouse i.p.) of 670, a selectivity ratio ([16]; po, Mouse p.o.) greater than 330 and a selectivity ratio ([16]; sc, Mouse s.c.) greater than 240. The ED50 (heat stimulus [17]; ip) was 1.5 mg/kg, the ED50 (heat stimulus [17]; po) was 3 mg/kg and the ED50 (heat stimulus [17]; sc) was 4.1 mg/kg.
In the case of `O=C1NC(c2ccccc2)N(CCN2CCN(c3ccccc3)CC2)c2ccccc21` (stereo not shown) [Example II, 1-[2-(1-Phenyl-4-piperazinyl)ethyl]-2-phenyl-1,2,3,4-tetrahydro-4-quinazolinone], the selectivity ratio ([2]; po) was 9, the selectivity ratio [2, 20] was greater than 91 and the “activity relative to morphine, writhing test” value ([3]; mice) was “approximately one third”. The ED50 ([3]; po, Mouse p.o.) was 11 mg/kg, the selectivity ratio ([4]; po) was 7.1 and the selectivity ratio ([4]; po, Rat p.o., read-out: LD50 /ED50 Writhing) was 71. For the same compound, the ED50 ([5]; Rattus norvegicus, rats, oral, read-out: dose at which writhing syndrome is 50% blocked) was 10 mg/kg, the ED50 ([5]; po, Rat p.o., read-out: Writhing ED50) was 14 mg/kg and the ED50 (heat stimulus [6]; po, read-out: D'Amour Smith Rat Tail Flick ED50) was greater than 100 mg/kg. It also gave an LD50 at 48 h (in vivo [1]; ip, Mouse i.p.) greater than 2500 mg/kg, an LD50 (in vivo [1]; mice, all routes tested, read-out: acute toxicity) greater than 1000 mg/kg and a selectivity ratio (in vivo [1]; oral route, read-out: therapeutic index (lethal dose to effective dose)) greater than 300. It also gave an LD50 at 48 h (in vivo [1]; po, Mouse p.o.) greater than 10000 mg/kg, an LD50 at 48 h (in vivo [1]; sc, Mouse s.c.) greater than 1000 mg/kg and an LD50 at 48 h (acute toxicity, rat) greater than 1000 mg/kg. For the same compound, the LD50 at 48 h (acute toxicity, cat; [19]) was greater than 1000 mg/kg, the LD50 at 48 h (acute toxicity, cat; po, Cat p.o., preliminary result) was greater than 1000 mg/kg and the “Amount to produce a 50% block of Acetylcholine” value [7] was 1000 micrograms. For the same compound, the “Amount to produce a 50% block of Histamine” value [8] was 0.5 micrograms, the “antihistaminic activity compared with diphenhydramine” value [8] was “about the same activity as the standard antihistaminic diphenhydramine” and the “ratio of ED50 corneal/ED50 pinna” value [9] was “greater than 10”. For the same compound, the “tranquilizer classification from corneal/pinna ratio” value [9] was “classified as possessing tranquilizer activity”, the “antagonism of oxymorphone induced mydriasis” value [10] was “slight antagonism of oxymorphone induced mydriasis in mice by the intraperiteneal route only” and the “antagonism of morphine analgesia” value (morphine analgesia) was “not effective by the subcutaneous route”. For the same compound, the hypothermic effect [11] was “effectively reduced body temperature in normal mice”, the “antagonism of metrazol induced convulsions” value ([12]; oral) was “able to antagonize these metrazol induced convulsions in mice” and the “suppression of intestinal motility” value (intestinal motility) was “effective in suppressing intestinal motility in mice”. The “suppression of intestinal motility” value (intestinal motility; listed as 740-222) was “reduces gut motility”, the selectivity ratio (in vivo [18]) was roughly 10 and the “oral versus parenteral analgesic activity” value [13] was “more active by the oral than the parenteral route”. For the same compound, the solubility (solubility) was “low solubility”, the selectivity ratio (in vivo [14]; ip) was 3.4 and the selectivity ratio (in vivo [14]; po) was 5. For the same compound, the selectivity ratio ([16]; ip, Mouse i.p.) was greater than 17, the selectivity ratio ([16]; po, Mouse p.o.) was greater than 50 and the ED50 (heat stimulus [17]; ip) was 52 mg/kg. For the same compound, the ED50 (heat stimulus [17]; po) was 20 mg/kg, the ED50 (heat stimulus [17]; sc) was greater than 562 mg/kg and the “analgesic activity compared with codeine, hot plate” value (heat stimulus [17]; mice, oral, words) was “of the same order as codeine”. The “analgesic activity compared with morphine, hot plate” value (heat stimulus [17]; mice, oral, words) was “slightly less than morphine”.

From patent US4060526A, “1-Heterocyclic alkyl-1,2,3,4-tetrahydroquinazolinones and analgesic intermediates thereof” (priority 1976, dated 1977)
